Assay results: US12492173B2, “Herbicidal substituted N-tetrazolyl aryl carboxamides” (Bayer Aktiengesellschaft, priority 2019, dated 2025)

Assays:
Type in all cases: in vivo
[1] = test system: Hordeum murinum; test: Post-emergence herbicidal action, HORMU; set-up: key: % herbicidal action: 100 = plants died, 0 = like control; conditions: post-emergence, dosage 80 g/ha
Method: (§1) [table] 2. Post-Emergence Herbicidal Action Against Harmful Plants Seeds of monocotyledonous and dicotyledonous weed and crop plants are laid out in sandy loam soil in wood-fiber pots, covered with soil and cultivated in a greenhouse under good growth conditions. 2 to 3 weeks after sowing, the test plants are treated at the one-leaf stage. The compounds of the invention, formulated in the form of wettable powders (WP) or as emulsion concentrates (EC), are then sprayed onto the green parts of the plants in the form of an aqueous suspension or emulsion at a water application rate equating to 600 to 800 l/ha, with addition of 0.2% wetting agent. After the test plants have been left to stand in the greenhouse under optimal growth conditions for about 3 weeks, the action of the preparations is assessed visually in comparison to untreated controls (herbicidal action in percent (%): 100% activity=the plants have died, 0% activity=like control plants). […] The tables below illustrate, in an exemplary manner, the post-emergence herbicidal action of the compounds according to the invention, the herbicidal activity being stated in percent. In the experiments that follow, herbicidal action of numerous inventive compounds and the known compounds that are structurally closest from D1 (WO 2012/028579 A1) and D2 (WO 2018/202535 A1) were compared under the above-specified conditions by the pre-emergence and post-emergence method. The example numbers given in the tables relate to the compounds disclosed in the respective documents. In addition to the compounds disclosed in D1 and D2, the following compounds V-1 to V-14 that are encompassed by D1 or D2 but are not compounds specified therein were used in the comparative experiments: • V-1: 2-(methylsulfanyl)-3-(methylsulfinyl)-N-(1-methyl-1H-tetrazol-5-yl)-4-(trifluoromethyl)benzamide • V-2: 2-(methylsulfanyl)-3-(methylsulfonyl)-N-(1-methyl-1H-tetrazol-5-yl)-4-(trifluoromethyl)benzamide • V-3: 2,3-bis(ethylsulfanyl)-N-(1-methyl-1H-tetrazol-5-yl)-4-(trifluoromethyl)benzamide • V-4: 2-chloro-3-(ethylsulfanyl)-N-(1-methyl-1H-tetrazol-5-yl)-4-(trifluoromethyl)benzamide • V-5: 2-chloro-4-iodo-3-(methylsulfanyl)-N-(1-methyl-1H-tetrazol-5-yl)benzamide • V-6: 2-chloro-4-iodo-3-(methylsulfinyl)-N-(1-methyl-1H-tetrazol-5-yl)benzamide • V-7: 2-chloro-4-iodo-3-(methylsulfonyl)-N-(1-methyl-1H-tetrazol-5-yl)benzamide • V-8: 2-bromo-3-(methylsulfanyl)-N-(1-methyl-1H-tetrazol-5-yl)-4-(trifluoromethyl)benzamide • V-9: 2-bromo-3-(methylsulfinyl)-N-(1-methyl-1H-tetrazol-5-yl)-4-(trifluoromethyl)benzamide • V-10: 2-bromo-3-(methylsulfonyl)-N-(1-methyl-1H-tetrazol-5-yl)-4-(trifluoromethyl)benzamide • V-11: 2-bromo-3-(ethylsulfanyl)-N-(1-methyl-1H-tetrazol-5-yl)-4-(trifluoromethyl)benzamide • V-12: 2-bromo-3-(ethylsulfinyl)-N-(1-methyl-1H-tetrazol-5-yl)-4-(trifluoromethyl)benzamide • V-13: 2-bromo-3-(ethylsulfonyl)-N-(1-methyl-1-1H-tetrazol-5-yl)-4-(trifluoromethyl)benzamide • V-14: 2-cyclopropyl-3-(ethylsulfanyl)-N-(1-methyl-1H-tetrazol-5-yl)-4-(trifluoromethyl)benzamide Herbicidal Pre-Emergence Action: […]

[2] = test system: Digitaria sanguinalis; test: Pre-emergence herbicidal action, DIGSA; conditions: dosage 320 g/ha, scored visually after 3 weeks vs untreated controls (100% = plants have died)
Excerpt: (§2) 1. Pre-Emergence Herbicidal Action Against Harmful Plants Seeds of monocotyledonous and dicotyledonous weed plants and crop plants are laid out in sandy loam soil in wood-fiber pots and covered with soil. The compounds of the invention, formulated in the form of wettable powders (WP) or as emulsion concentrates (EC), are then applied to the surface of the covering soil in the form of an aqueous suspension or emulsion at a water application rate equating to 600 to 800 l/ha, with addition of 0.2% wetting agent. After the treatment, the pots are placed in a greenhouse and kept under good growth conditions for the trial plants. The damage to the test plants is scored visually after a test period of 3 weeks by comparison with untreated controls (herbicidal activity in percent (%): 100% activity=the plants have died, 0% activity=like control plants). […] The tables below illustrate, in an exemplary manner, the […] herbicidal action of the compounds according to the invention, the herbicidal activity being stated in percent. [table] In the experiments that follow, herbicidal action of numerous inventive compounds and the known compounds that are structurally closest from D1 (WO 2012/028579 A1) and D2 (WO 2018/202535 A1) were compared under the above-specified conditions by the pre-emergence and post-emergence method. The example numbers given in the tables relate to the compounds disclosed in the respective documents. In addition to the compounds disclosed in D1 and D2, the following compounds V-1 to V-14 that are encompassed by D1 or D2 but are not compounds specified therein were used in the comparative experiments: • V-1: 2-(methylsulfanyl)-3-(methylsulfinyl)-N-(1-methyl-1H-tetrazol-5-yl)-4-(trifluoromethyl)benzamide • V-2: 2-(methylsulfanyl)-3-(methylsulfonyl)-N-(1-methyl-1H-tetrazol-5-yl)-4-(trifluoromethyl)benzamide • V-3: 2,3-bis(ethylsulfanyl)-N-(1-methyl-1H-tetrazol-5-yl)-4-(trifluoromethyl)benzamide • V-4: 2-chloro-3-(ethylsulfanyl)-N-(1-methyl-1H-tetrazol-5-yl)-4-(trifluoromethyl)benzamide • V-5: 2-chloro-4-iodo-3-(methylsulfanyl)-N-(1-methyl-1H-tetrazol-5-yl)benzamide • V-6: 2-chloro-4-iodo-3-(methylsulfinyl)-N-(1-methyl-1H-tetrazol-5-yl)benzamide • V-7: 2-chloro-4-iodo-3-(methylsulfonyl)-N-(1-methyl-1H-tetrazol-5-yl)benzamide • V-8: 2-bromo-3-(methylsulfanyl)-N-(1-methyl-1H-tetrazol-5-yl)-4-(trifluoromethyl)benzamide • V-9: 2-bromo-3-(methylsulfinyl)-N-(1-methyl-1H-tetrazol-5-yl)-4-(trifluoromethyl)benzamide • V-10: 2-bromo-3-(methylsulfonyl)-N-(1-methyl-1H-tetrazol-5-yl)-4-(trifluoromethyl)benzamide • V-11: 2-bromo-3-(ethylsulfanyl)-N-(1-methyl-1H-tetrazol-5-yl)-4-(trifluoromethyl)benzamide • V-12: 2-bromo-3-(ethylsulfinyl)-N-(1-methyl-1H-tetrazol-5-yl)-4-(trifluoromethyl)benzamide • V-13: 2-bromo-3-(ethylsulfonyl)-N-(1-methyl-1-1H-tetrazol-5-yl)-4-(trifluoromethyl)benzamide • V-14: 2-cyclopropyl-3-(ethylsulfanyl)-N-(1-methyl-1H-tetrazol-5-yl)-4-(trifluoromethyl)benzamide Herbicidal Pre-Emergence Action: […]

[3] = test system: Lolium rigidum; test: Post-emergence herbicidal action, LOLRI; conditions: dosage 80 g/ha
Method: as §1

[4] = test system: Alopecurus myosuroides; test: Pre-emergence herbicidal action, ALOMY; set-up: key: % activity: 100 = plants have died, 0 = like control plants; conditions: comparative experiment
Excerpt: as §2

[5] = test system: Digitaria sanguinalis; test: Post-emergence herbicidal action, DIGSA; set-up: key: % herbicidal action: 100 = plants died, 0 = like control; conditions: post-emergence, dosage 80 g/ha
Method: as §1

[6] = test system: Lolium multiflorum; test: Post-emergence herbicidal action, LOLMU; set-up: key: % herbicidal action: 100 = plants died, 0 = like control; conditions: post-emergence; for Herbicidal action against LOLMU: comparative experiment; for herbicidal action LOLMU: dosage 80 g/ha
Method: as §1

[7] = test system: Cyperus esculentus; test: Pre-emergence herbicidal action, CYPES; set-up: key: % activity: 100 = plants have died, 0 = like control plants; conditions: comparative experiment
Outline: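 Pre-emergence soil spray over sandy loam-covered seeds; greenhouse 3 weeks; % visual damage (0% = control, 100% = dead).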

With `Cn1nnnc1NC(=O)c1ccc(I)c(C[S+](C)[O-])c1Cl` (racemic) [Example 1-363] the “herbicidal action HORMU” value [1] was 90%, the “herbicidal activity DIGSA” value [2] was 100% and the “herbicidal action LOLRI” value [3] was 80%. For the same molecule, the “Herbicidal action against ALOMY” value ([4]; 20 g of a.i./ha) was 50 and the “herbicidal action DIGSA” value [5] was 100%.

With `CCS(=O)(=O)Cc1c(C(F)(F)F)ccc(C(=O)Nc2nnnn2C)c1Br` [Example 1-385] the “Herbicidal action against ALOMY” value ([4]; 80 g of a.i./ha) was 100, the “Herbicidal action against LOLMU” value ([6]; 20 g of a.i./ha) was 50 and the “herbicidal action LOLMU” value [6] was 80%.

`CSCc1c(I)ccc(C(=O)Nc2nnnn2C)c1Cl` [Example 1-362] was tested, and the “herbicidal action HORMU” value [1] was 100%, the “Herbicidal action against CYPES” value ([7]; 20 g of a.i./ha) was 80 and the “herbicidal action LOLRI” value [3] was 80%.

In the case of `Cn1nnnc1NC(=O)c1ccc(C(F)(F)F)c(CSC2CC2)c1Cl` [Example 1-302], the “herbicidal action HORMU” value [1] is reported as 90% and the “herbicidal action LOLRI” value [3] is reported as 90%.

In the case of `CCn1nnnc1NC(=O)c1ccc(C(F)(F)F)c(C[S+]([O-])CC)c1Cl` (centres unmarked) [Example 2-300], the “herbicidal action HORMU” value [1] is reported as 90%, the “herbicidal activity DIGSA” value [2] is reported as 100% and the “herbicidal action LOLRI” value [3] is reported as 80%. The “herbicidal action DIGSA” value [5] was 100%.

`CCS(=O)(=O)c1c(C(F)(F)F)ccc(C(=O)Nc2nnnn2C)c1Br` [Example V-13, 2-bromo-3-(ethylsulfonyl)-N-(1-methyl-1-1H-tetrazol-5-yl)-4-(trifluoromethyl)benzamide, reference compound] was tested, and the “Herbicidal action against ALOMY” value ([4]; 80 g of a.i./ha) was 0 and the “Herbicidal action against LOLMU” value ([6]; 20 g of a.i./ha) was 0.

In the case of `CCCn1nnnc1NC(=O)c1ccc(C(F)(F)F)c(C[S+](C)[O-])c1SC` (centres unmarked) [Example 3-162], the “herbicidal action HORMU” value [1] is reported as 90% and the “herbicidal action LOLRI” value [3] is reported as 80%.

For `CCSCc1c(C(F)(F)F)ccc(C(=O)Nc2nnnn2C)c1Cl` [Example 1-299], the “Herbicidal action against CYPES” value ([7]; 20 g of a.i./ha) was 90, the “Herbicidal action against ALOMY” value ([4]; 20 g of a.i./ha) was 80 and the “Herbicidal action against LOLMU” value ([6]; 5 g of a.i./ha) was 70. For the same molecule, the “herbicidal action LOLMU” value [6] was 90%.

In the case of `CC[S+]([O-])Cc1c(C(F)(F)F)ccc(C(=O)Nc2nnnn2C)c1Cl` (racemic) [Example 1-300], the “herbicidal action HORMU” value [1] is reported as 90%, the “herbicidal activity DIGSA” value [2] is reported as 100% and the “herbicidal action LOLRI” value [3] is reported as 90%. The “herbicidal action DIGSA” value [5] was 100%.

For `Cn1nnnc1NC(=O)c1ccc(C(F)(F)F)c(CSCC2CC2)c1Cl` [Example 1-314], the “herbicidal action HORMU” value [1] was 100% and the “herbicidal action LOLRI” value [3] was 90%.

In the case of `COCCSCc1c(C(F)(F)F)ccc(C(=O)Nc2nnnn2C)c1Cl` [Example 1-305], the “herbicidal action HORMU” value [1] is reported as 90% and the “herbicidal action LOLRI” value [3] is reported as 100%.

`CC[S+]([O-])Cc1c(C(F)(F)F)ccc(C(=O)Nc2nnnn2C)c1Br` (racemic) [Example 1-384] was tested, and the “Herbicidal action against CYPES” value ([7]; 80 g of a.i./ha) was 100, the “Herbicidal action against ALOMY” value ([4]; 80 g of a.i./ha) was 100 and the “herbicidal action LOLMU” value [6] was 90%.

In the case of `CSc1c(C(=O)Nc2nnnn2C)ccc(C(F)(F)F)c1C[S+](C)[O-]` (centres unmarked) [Example 1-162], the “herbicidal action HORMU” value [1] is reported as 90%, the “Herbicidal action against CYPES” value ([7]; 20 g of a.i./ha) is reported as 70 and the “herbicidal action LOLRI” value [3] is reported as 80%.

In the case of `CCn1nnnc1NC(=O)c1ccc(C(F)(F)F)c(CSCCOC)c1Cl` [Example 2-305], the “herbicidal action HORMU” value [1] is reported as 100% and the “herbicidal action LOLRI” value [3] is reported as 80%.
